Square brackets hold non-standard residues; d marks the D form. Ends that are not written are not given here. Trp(2,5,7-tBu3) = CC(C)(C)c1cc(C(C)(C)C)c2[nH]c(C(C)(C)C)c(C[C@H](N)C(=O)O)c2c1 Bounds are passed on as bounds.

One data set concerns A20 cells. The data set is described as follows: MTT cytotoxicity assay against A20 lymphoma cells. Type of data set: cell-based, Murine. The settings on record: for IC50: A20 cells; for ΔIC50 on further increase of charge: 4a→5 and 6a→7, A20 cells; for ΔIC50 (difference in activity against A20): compared with peptide 4a. As for the experimental part: (§1) The first screen against A20 and MRC-5 was done manually, while the lymphoma panel screen were done at Marbio (Tromsø) using an automated platform (Biomek NX, Beckman Coulter). Cells were automatically counted (Z1 Coulter Particle Counter, Beckman Coulter) and the cells seeded out in 96-well plates. The plates were incubated for at least 16 hours before the start of the assay. The growth media was removed and the cells washed once with 100 μL assay media (RPMI-1640). Cells were then treated with 100 μL peptide solution (concentration varying from 500-10 μg/mL) for 4 hrs. Normal assay media and assay media containing 0.1% Triton were used as negative and positive controls, respectively. After this period 10 μL of a MTT solution (5 mg/mL) was added to each well and the plate incubated for a further 2 hrs. Following this 70 μL of the media was carefully removed and 100 μL acidified isopropanol added. The formed formazan crystals were dissolved by agitating the cells with a micropipette and by shaking (30 mins). The absorbance of the reduced MTT (formazan) was read on Versa Max Microplate Reader (Molecular Devices) at 590 nm. All assays, unless mentioned otherwise, were done in triplicate.
A general note: Formazan colour is commonly taken as a measure of viable cells.

Another data set relates to MRC-5 cells. The data set is described as follows: MTT cytotoxicity assay against MRC-5 normal fibroblasts (selectivity, SI-1). Type of data set: cell-based, Human. How it is done: The first screen against A20 and MRC-5 was done manually, while the lymphoma panel screen were done at Marbio (Tromsø) using an automated platform (Biomek NX, Beckman Coulter).
Cells were automatically counted (Z1 Coulter Particle Counter, Beckman Coulter) and the cells seeded out in 96-well plates. The plates were incubated for at least 16 hours before the start of the assay.
as §1, with “The” for “The first screen against A20 and MRC-5 was done manually, while the lymphoma panel screen were done at Marbio (Tromsø) using an automated platform (Biomek NX, Beckman Coulter). Cells were automatically counted (Z1 Coulter Particle Counter, Beckman Coulter) and the cells seeded out in 96-well plates. The plates were incubated for at least 16 hours before the start of the assay. The”
During the initial screening process peptide analogues was tested against normal human fibroblasts (SI-1) and the results used to estimate cytotoxicity towards healthy cells surrounding the tumor.

The nature of data set [1]: Cardiovascular toxicity assessment in telemeterized rats. The data set is classed as in vivo, Sprague-Dawley rats. The settings on record: IV twice-daily, telemetry -1 to 8 hours. As for the experimental part:
Male Sprague-Dawley (Charles River, Portage, Mich.) rats (320-400 g) were instrumented with DSI (St. Paul, Minn.) telemetry transmitters by CorDynamics.
EWL-6 was stored in a freezer set to maintain approximately −20° C. and protected from light. A formulation comprising EWL-6 was prepared at a dose volume of 1 mL/kg/dose in 0.9% sodium chloride for injection, U.S.P., for IV dosing. Doses were filtered through a […] PP filter prior to injection.
Each rat was manually restrained and vehicle or EWL-6 dosed twice-daily intravenously over approximately 1-2 minutes. Daily doses were separated by approximately 4 hours.
Pulse pressure (FIG. 8) and mean arterial pressure (FIG. 9) were recorded for −1 to 8 hours following the first daily dose via telemetry and reported in 1 minute averages from −1 to 8 hours following the first daily dose.

In data set [2] the test system is SU-DHL-6 (diffuse large B cell lymphoma). The data set is classed as cell-based, Human. The following applies: 16 h. As for the experimental part: as §1, with “Cells were then treated with 100 μL peptide solution (concentration varying from 500-10 μg/mL) for 4 hrs.” left out
Data set [3] concerns Namalawa (Burkitt's lymphoma). Type of data set: cell-based, Human. The settings on record: 16 h. How it is done: as §1
Data set [4] deals with Ramos (Burkitt's lymphoma). The data set is classed as cell-based, Human. The following applies: 16 h. As for the experimental part: as §1
The test system of another data set is three T-lymphoma lines. Type of data set: cell-based, Human. The settings on record: 16 h. How it is done:
as §1

The subject of data set [5] is DU-145 Prostate carcinoma. Type of data set: cell-based. The following applies: 4 h. How it is done:
as §1, with “The” for “The first screen against A20 and MRC-5 was done manually, while the lymphoma panel screen were done at Marbio (Tromsø) using an automated platform (Biomek NX, Beckman Coulter). Cells were automatically counted (Z1 Coulter Particle Counter, Beckman Coulter) and the cells seeded out in 96-well plates. The plates were incubated for at least 16 hours before the start of the assay. The”

A further data set has as its system HT-29 Colon carcinoma. The data set is classed as cell-based. The following applies: 4 h. As for the experimental part:
as §1, with “The” for “The first screen against A20 and MRC-5 was done manually, while the lymphoma panel screen were done at Marbio (Tromsø) using an automated platform (Biomek NX, Beckman Coulter). Cells were automatically counted (Z1 Coulter Particle Counter, Beckman Coulter) and the cells seeded out in 96-well plates. The plates were incubated for at least 16 hours before the start of the assay. The”

The next data set concerns A20 lymphomas. The settings on record: mouse, in vivo. As for the experimental part:
A20 tumor cells were harvested, washed in RPMI-1640 and inoculated (i.d.) into the left side of the abdomen in BALB/c mice (5×10^6 cells in 50 μl RPMI-1640 per mouse). When the tumor size reached 20 mm^2 the mice were split into three groups and treated; Group1—nine mice with the vehicle (0.9% NaCl in sterile H2O), Group2a—eight mice where the tumors were treated with peptide 6a, and Group 3a—nine mice where the tumors were treated with peptide 11. Intralesional injections were performed once a day for three consecutive days.
Tumor size was measured three times a week using an electronic caliper and expressed as the area of an ellipse [(maximum dimension/2)×(minimum dimension/2)×[…]. Animals were killed when the tumor exceeded 100 mm^2. Animals were killed also if the tumor had not reached that size but presented ulcerations or the animals developed metastasis.
Survival curves were compared by the log-rank test. Groups were compared using one-way ANOVA test with Tukey's multiple comparison. Differences were considered significant when P<0.05.

The mark [6] stands for this setting: Table 2, analogues of 6a, MRC-5 fibroblasts versus A20 lymphoma, MTT.
Where [7] appears, read: Table 3, MRC-5 fibroblasts versus A20 lymphoma.
Setting [8] is: Table 1, selectivity, normal human fibroblasts (MRC-5) versus A20 lymphoma, MTT.
Setting [9] is: five most active peptides from the A20 screening, tested against normal human fibroblasts.

By IC50 is commonly meant the concentration needed to halve the response being measured. A high value points to weaker potency in that assay. “WRRRGRRWRGRRRW [Peptide 6c, WRRRGRRWRGRRRW (SEQ ID NO: 22)]” showed an IC50 in the data set with A20 cells (Table 3, MTT, 4 hrs treatment) of 6.1 µM. Also, the SI-1 with MRC-5 cells (setting [6]) and in the data set on MRC-5 cells (setting [7]) was >100 each time.

Consider “RWRW-GG-RRRRRRR (SEQ ID NO: 13) (RWRWGGRRRRRRR-NH2) [Peptide 5]”, for which, in the data set with A20 cells, the “ΔIC50 on further increase of charge” value is listed as “≈ 1 μM”.

In turn, “WWWGGRRRRRRRRR [Peptide 6b, WWWGGRRRRRRRRR (SEQ ID NO: 21)]” gave a concentration for half-maximal inhibition (IC50) with A20 cells (Table 3, MTT, 4 hrs treatment) of 3.5 µM. Further, the SI-1 in the data set on MRC-5 cells (setting [6]) and in the data set on MRC-5 cells (setting [7]) was 9 throughout.

Consider “RWRWRWGGRRRRRRR-NH2 [Peptide 7, RWRWRW-GG-RRRRRRR (SEQ ID NO: 15)]”, for which the “ΔIC50 on further increase of charge” value in the data set on A20 cells was “≈ 1 μM”. The “SI-1 / selectivity” value with MRC-5 cells (16 h) is on record as “higher than 10”. In the data set with MRC-5 cells (setting [8]), this substance came in with an SI-1 of 12.

As for “(Tbt)R(Tbt)-GG-RRRRRRR (SEQ ID NO: 17) ([Trp(2,5,7-tBu3)]R[Trp(2,5,7-tBu3)]GGRRRRRRR-NH2; N-terminus assumed; SMILES CC(C)(C)c1cc(C(C)(C)C)c2[nH]c(C(C)(C)C)c(C[C@H](NC(=O)[C@H](CCCNC(=N)N)NC(=O)[C@@H](N)Cc3c(C(C)(C)C)[nH]c4c(C(C)(C)C)cc(C(C)(C)C)cc34)C(=O)NCC(=O)NCC(=O)N[C@@H](CCCNC(=N)N)C(=O)N[C@@H](CCCNC(=N)N)C(=O)N[C@@H](CCCNC(=N)N)C(=O)N[C@@H](CCCNC(=N)N)C(=O)N[C@@H](CCCNC(=N)N)C(=O)N[C@@H](CCCNC(=N)N)C(=O)N[C@@H](CCCNC(=N)N)C(N)=O)c2c1) [Peptide 4c]”, in the data set with A20 cells, the “ΔIC50 (difference in activity against A20)” value is “small and unexpected decrease in activity”. The substance further displayed an SI-1 in the data set with MRC-5 cells (setting [8]) of 1. Further, the “SI-1 / selectivity” value with MRC-5 cells (setting [9]) is “almost no selectivity at all”.

As to “WGRRRRRGWGRRRRGW-NH2 [EWL-6, WGRRRRRGWGRRRRGW (SEQ ID NO: 8)]”, in data set [1], the “mean arterial pressure compared to control” value is reported as “No noticeable difference” and the “pulse pressure compared to control” value is “No noticeable difference”.

Turning to “W-GG-RRRRRRR (SEQ ID NO: 10) (WGGRRRRRRR-NH2) [Peptide 2]”, the “ΔIC50 (difference in activity against A20)” value in the data set on A20 cells came to 58 µM.

For the substance “KLAKLAKKLAKLAK-GG-RRRRRRR (SEQ ID NO: 9) [Peptide 1b]”, the SI-1 in the data set on MRC-5 cells (setting [8]) came out at 5. For the same substance, the “SI-1 / selectivity” value in the data set on MRC-5 cells (setting [9]) is reported as “low selectivity”.

“WRWRWGGKKKKKKK [WRWRW-GG-KKKKKKK, WRWRW-GG-KKKKKKK (SEQ ID NO:26)]” returned an IC50 with A20 cells (as described in Example 1) of 13.2 µM.

With “WRRRRRWRRRRW-NH2 [Peptide 11, WRRRRRWRRRRW (SEQ ID NO: 23)]”, the IC50 in [2] was < 10 µM; in data set [3] it was < 10 µM; in [4] it was < 10 µM; with three T-lymphoma lines it was ~4.6 µM; in data set [5] it was 69 µM; with HT-29 Colon carcinoma, 70 µM. For the same substance, in the data set with A20 lymphomas, the systemic toxic effects result is “no signs of systemic toxic effects”.

On to “WRWRW-GG-RRRR (SEQ ID NO: 20) (WRWRWGGRRRR-NH2) [Peptide 10]”, for which the SI-1 in the data set with MRC-5 cells (setting [6]) is given as >23.

Take “WRWRWGGRRRRRRR-NH2 [Peptide 6a, WRWRW-GG-RRRRRRR (SEQ ID NO: 14)]”: the IC50 in data set [2] is < 10 µM; in [3], < 10 µM; in data set [4], < 10 µM; in the data set with three T-lymphoma lines, ~4.6 µM. Moreover, in the data set with A20 lymphomas, the systemic toxic effects entry is given as “no signs of systemic toxic effects”.

In the data set with MRC-5 cells (setting [8]), “WR(Tbt)-GG-RRRRRRR (SEQ ID NO: 16) (WR[Trp(2,5,7-tBu3)]GGRRRRRRR-NH2; N-terminus assumed; SMILES CC(C)(C)c1cc(C(C)(C)C)c2[nH]c(C(C)(C)C)c(C[C@H](NC(=O)[C@H](CCCNC(=N)N)NC(=O)[C@@H](N)Cc3c[nH]c4ccccc34)C(=O)NCC(=O)NCC(=O)N[C@@H](CCCNC(=N)N)C(=O)N[C@@H](CCCNC(=N)N)C(=O)N[C@@H](CCCNC(=N)N)C(=O)N[C@@H](CCCNC(=N)N)C(=O)N[C@@H](CCCNC(=N)N)C(=O)N[C@@H](CCCNC(=N)N)C(=O)N[C@@H](CCCNC(=N)N)C(N)=O)c2c1) [Peptide 4b]” gave an SI-1 of 2. For the same substance, in the data set on MRC-5 cells (setting [9]), the “SI-1 / selectivity” value is on record as “almost no selectivity at all”.

As for “WRWRW-GG-RRRRRR (SEQ ID NO: 18) [Peptide 8]”, in the data set on MRC-5 cells (setting [6]), the SI-1 is listed as 21.

On to “WRWRW-GG-RRRRR (SEQ ID NO: 19) (WRWRWGGRRRRR-NH2) [Peptide 9]”, for which the SI-1 in the data set with MRC-5 cells (setting [6]) worked out at 23.

For the origin of these results see patent publication US10287320B2, “Anti-lymphoma peptides” (Universitetet i Tromsø—Norges Arktiske Universitet, priority 2014, dated 2019).
